Tested on: Patients have a diagnosis of Idiopathic Pulmonary Fibrosis, IPF
Experiment: Treatment of patients with Idiopathic Pulmonary Fibrosis with C21 (Examples 1 and 2)
Assay type: in vivo, human
Conditions: a few weeks after starting treatment
Experimental: Patients have a diagnosis of Idiopathic Pulmonary Fibrosis, IPF, who generally are above the age of 60 years, often with concomitant diseases, like ischemic heart disease, diabetes etc. Patients may either be treated for IPF with currently established drugs, e.g. pirfenidone and/or nintedanib or treatment-naïve. Each patient receives a compound of the invention, C21, in a dose range between 0.3 mg and 100 mg daily that is administered once or several times daily. Control groups are administered placebo, or one or more currently established therapies, e.g. pirfenidone and/or nintedanib. The compound, C21, is in a formulation hat can be administered to the patient orally, via inhalation, intravenously or as a combination of more than one route of administration for the treatment of IPF. The treatment is evaluated through efficacy variables such as objective measurements of improved lung capacity/cardiac function and subjective symptoms and quality of life—both at visits to doctors' office and in the patient's home or work environment. Beneficial effects are recorded and followed after one to several months' treatment with the compound, C21, vs placebo or vs currently established therapy(-ies), e.g. pirfenidone and/or nintedanib.
Patients have a diagnosis of Idiopathic Pulmonary Fibrosis, IPF, and are treated according to EXAMPLE 1. […] Furthermore, cardiac function tests, e.g. echo or MRI, may indicate improvements in the underlying lung disease resulting in improved cardiac performance. Benefits may also be seen as an improvement in progression-free survival, where the number of deaths is analyzed together with the number of patients presenting with pre-defined marked reduction of FVC and/or exercise capacity. Benefits can be either self-reported or objectively recorded. Improvements in symptoms may include less dyspnea, less cough, less fatigue, increased exercise capacity and improved quality of life. Improvements may be seen in treatment-naïve patients as well as in those already on treatment with established therapies for IPF.

SMILES: CCCCOC(=O)NS(=O)(=O)c1sc(CC(C)C)cc1-c1ccc(Cn2ccnc2)cc1 [Compound C21, N-Butyloxycarbonyl-3-(4-imidazol-1-ylmethylphenyl)-5-iso-butylthiophene-2-sulfonamide]
- dyspnea and cough (patient-reported): slight improvement
- exercise capacity (patient with IPF): without any deterioration
- biomarkers that are relevant for the progression of the disease (blood tests) (patient with IPF, C21 0.3 mg to 100 mg daily): improvement in biomarkers
